Measurements: US20240024273A1, “TOPICAL ADMINISTRATION OF 2-(DIETHYLAMINO)ETHYL 2-(4-ISOBUTYLPHENYL)PROPRIONATE FOR TREATMENT OF DISEASES” (TECHFIELDS PHARMA CO., LTD., priority 2020, published 2024)

What was measured:
[1] = tested on: osteoarthritis of the knee; assay: Second Phase 2 study: Subject's pain Assessment Scores (SPA); format: in vivo, human
Protocol: Subjects will record the following information in a Daily Diary starting at Screening: the amount of knee pain in the target knee while walking during the preceding 24 hours (using a 100 mm visual analog scale [VAS]), the times and number of sprays for each administration of study medication, the times when the subject washes his/her knees and/or takes a shower, the number of tablets of rescue medication taken that day and the times taken, the reason for taking the rescue medication (e.g., knee pain, headache, low back pain), any other concomitant medications taken that day, and any AEs occurring that day.

[2] = tested on: osteoarthritis of the knee; assay: Second Phase 2 study: WOMAC stiffness subscale score; format: in vivo, human
Description: For subjects with bilateral knee pain, both knees will be treated, but the most symptomatic knee (ie, the most painful knee as measured by the Western Ontario and McMaster University Osteoarthritis Index [WOMAC® 3.1] pain subscale score at Screening) will be designated as the target knee for efficacy analyses. For subjects with unilateral knee pain, only the symptomatic (target) knee will be treated.
The VAS version of the WOMAC will be used for the Primary and Secondary Efficacy Endpoints. Efficacy endpoints will be assessed at Screening and Baseline (Day 1) and at the Week 2, Week 4, Week 8, and Week 12/EOS visits.
4.9.2. Secondary Efficacy Endpoints: • 1. Change from Baseline in the WOMAC (VAS) pain subscale score for the target knee at 2, 8, and 12 weeks of treatment; • 2. Change from Baseline in the WOMAC (VAS) stiffness subscale scores for the target knee and WOMAC (VAS) functional ability subscale scores at 2, 4, 8, and 12 weeks of treatment; • 3. Change from Baseline in the overall WOMAC (VAS) score at 2, 4, 8, and 12 weeks of treatment; • 4. Subject's global assessment of disease status of the target knee at 2, 4, 8, and 12 weeks of treatment; • 5. Subject's global assessment of response to therapy of the target knee at 2, 4, 8, and 12 weeks of treatment; • 6. Amount of rescue medication (acetaminophen) consumed per day for target knee pain.
The Secondary Efficacy Endpoints, change from Baseline in the WOMAC subscale scores for pain, stiffness, and functional ability, and overall WOMAC score at 2, 4, 8, and 12 weeks of treatment, will be analyzed using the same methods as for the Primary Efficacy Endpoint.

[3] = Baseline, oral, 3 × 400 mg (n = 20), first 130 subjects
[4] = Week 12, oral, 3 × 400 mg (n = 20), first 130 subjects
[5] = all subjects, Oral Ibuprofen 3 × 400 mg, n = 48, Week 12
[6] = all subjects, Oral Ibuprofen 3 × 400 mg, n = 48 vs. Placebo n = 48
[7] = oral 3×400 mg, first 130 subjects

CC(C)Cc1ccc(C(C)C(=O)O)cc1 (centres unmarked) [Ibuprofen, 2-(4-isobutylphenyl)propionic acid, reference compound]
Subject’s pain Assessment Scores, Baseline (LS Mean) [1, 3]: 71.2 mm | Subject’s pain Assessment Scores, % of improvement from baseline [1, 4]: −36.2% | Subject’s pain Assessment Scores, % of improvement from placebo [1, 4]: −7.0% | Subject’s pain Assessment Scores, Changes from Baseline (LS Mean) [1, 4]: −25.8 mm | Subject’s pain Assessment Scores, Different from placebo (LS Mean) [1, 4]: −6.9 mm | Subject’s pain Assessment Scores, Week 12 (LS Mean) [1, 4]: 45.4 mm | Subject's pain Assessment Scores, % of improvement from Placebo [1, 5]: −8.4% | Subject's pain Assessment Scores, % of improvement from baseline [1, 5]: −45.4% | Subject's pain Assessment Scores, Changes from Baseline (LS Mean) [1, 5]: −30.5 mm | Subject's pain Assessment Scores, Week 12 (LS Mean) [1, 5]: 36.6 mm | SPA, difference vs. Placebo [1, 6]: −6.4 mm | SPA, difference from placebo [1, 7]: 6.1 mm | WOMAC Stiffness Subscale Scores, Baseline (LS Mean) [2, 3]: 56.4 mm | WOMAC Stiffness Subscale Scores, % of improvement from Placebo [2, 4]: −10.3% | WOMAC Stiffness Subscale Scores, Changes from Baseline (LS Mean) [2, 4]: −20.6 mm | WOMAC Stiffness Subscale Scores, Different from placebo (LS Mean) [2, 4]: −6.6 mm | WOMAC Stiffness Subscale Scores, Week 12 (LS Mean) [2, 4]: 35.8 mm | WOMAC Stiffness Subscale Scores, % of improvement from Placebo [2, 5]: −6.9% | WOMAC Stiffness Subscale Scores, % of improvement from baseline [2, 5]: −39.3% | WOMAC Stiffness Subscale Scores, Changes from Baseline (LS Mean) [2, 5]: −20.3 mm | WOMAC Stiffness Subscale Scores, Week 12 (LS Mean) [2, 5]: 31.3 mm | WOMAC Stiffness, difference vs. Placebo [2, 6]: −3.8 mm | WOMAC stiffness, difference from placebo [2, 7]: −6.7 mm
